The source of these data is paper PMC3815476 (Biochemistry, 2013).

The structures appear in SMILES notation.

The target of the assay is Shp (Streptococcus pyogenes, UniProt Q06A48, M66A). Briefly: biochemical.

As a reminder, the Kd is the concentration at which binding is half-saturated. The low end stands for a tighter complex, the high end for a looser complex. As for `c1c[nH]cn1` [imidazole], binding was put at a Kd of 210 ± 11 µM.
